Experimental data taken from paper PMC8787434, “Discovery of Novel GR Ligands toward Druggable GR Antagonist Conformations Identified by MD Simulations and Markov State Model Analysis” (Advanced Science, 2021).

What was measured:
[1] = target: T1, GR (pCMV-GR11 in Hela cells) (Homo sapiens, UniProt P04150); test: NF-κB-Luc tethered transrepression reporter assay; format: cell-based; settings: read-out: Cell transrepression / NF-κb (IC50 μM)
T1 construct: gene NR3C1; GR expressed from pCMV-GR11 (Addgene #89105), transiently transfected in HeLa cells
T1 sequence (P04150 1-777): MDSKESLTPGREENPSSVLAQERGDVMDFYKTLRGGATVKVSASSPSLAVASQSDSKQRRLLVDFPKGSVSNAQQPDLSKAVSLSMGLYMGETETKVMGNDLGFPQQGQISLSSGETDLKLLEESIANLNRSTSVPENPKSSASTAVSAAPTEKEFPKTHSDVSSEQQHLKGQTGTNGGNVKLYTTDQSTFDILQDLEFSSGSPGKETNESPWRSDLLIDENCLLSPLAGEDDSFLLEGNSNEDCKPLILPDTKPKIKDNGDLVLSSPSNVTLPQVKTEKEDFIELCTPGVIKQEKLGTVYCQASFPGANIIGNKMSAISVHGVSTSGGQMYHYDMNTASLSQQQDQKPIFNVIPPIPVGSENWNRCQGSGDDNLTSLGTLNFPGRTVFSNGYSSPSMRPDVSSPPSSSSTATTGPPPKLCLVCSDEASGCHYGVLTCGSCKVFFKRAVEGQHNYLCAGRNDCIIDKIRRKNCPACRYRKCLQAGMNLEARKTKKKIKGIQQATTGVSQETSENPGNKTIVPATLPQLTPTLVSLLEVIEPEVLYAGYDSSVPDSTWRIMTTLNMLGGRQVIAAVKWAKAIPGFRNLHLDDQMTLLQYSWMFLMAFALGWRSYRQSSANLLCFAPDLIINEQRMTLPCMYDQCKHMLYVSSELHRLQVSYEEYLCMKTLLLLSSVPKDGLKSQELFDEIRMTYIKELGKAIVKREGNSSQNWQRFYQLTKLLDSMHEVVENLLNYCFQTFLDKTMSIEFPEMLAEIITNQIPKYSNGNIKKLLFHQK
From the text: NF-κB-Luc tethered transrepression reporter assay on GR (pCMV-GR11 in Hela cells)

[2] = target: T2, GR (LanthaScreen TR-FRET GR Competitive Binding Assay) (Homo sapiens, UniProt P04150); test: LanthaScreen TR-FRET competitive binding assay
T2 construct: gene NR3C1
T2 sequence (P04150 521-777 limits assumed): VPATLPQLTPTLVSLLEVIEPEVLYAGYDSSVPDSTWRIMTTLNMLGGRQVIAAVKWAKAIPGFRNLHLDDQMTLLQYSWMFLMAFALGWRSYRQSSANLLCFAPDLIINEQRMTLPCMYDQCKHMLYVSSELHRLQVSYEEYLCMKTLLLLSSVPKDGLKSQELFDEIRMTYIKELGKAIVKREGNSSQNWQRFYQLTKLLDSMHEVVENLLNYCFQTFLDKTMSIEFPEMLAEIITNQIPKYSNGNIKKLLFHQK
From the text: LanthaScreen TR-FRET competitive binding assay on GR (LanthaScreen TR-FRET GR Competitive Binding Assay)

`COc1ccccc1CN1Cc2cc(NS(=O)(=O)c3ccc(F)cc3)ccc2OC(C)C1=O` (stereo not drawn) [HP‐26] showed an IC50 [1] of 12.2 ± 1.95 µM and an IC50 [2] of 4.45 ± 0.36 µM.

In the case of `Cc1ccc(S(=O)(=O)N2CCCc3cc(NS(=O)(=O)c4ccc(F)cc4C)ccc32)cc1` [HP‐67], the IC50 [1] is reported as 2.76 ± 0.18 µM and the IC50 [2] is reported as 1.57 ± 0.54 µM.

Work on `CC(=O)N1CCc2cc(S(=O)(=O)C(C)CC(=O)NCC(C)c3ccccc3)ccc21` (stereo not drawn) [HP‐24] yielded an IC50 [1] of 2.71 ± 0.72 µM and an IC50 [2] of 2.53 ± 0.12 µM.
